Assay results reported in US10065990B2, “Cyclic peptide compound, and preparation method, pharmaceutical composition and use thereof” (HANGZHOU GUANYU BIO-MEDICAL CO., LTD, priority 2013, dated 2018).
Where two headings read alike, the source gives them in different places.

Key:
Experiment in all cases: MTT cancer cell growth inhibition
Format in all cases: cell-based
[1] = test system: A549 (human lung cancer cells); details: MTT
How it was run: (§1)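 Growth inhibition is scored with MTT after three days of compound treatment spanning 10^−5–10^−10 M. Cells are maintained in DMEM or 1640 medium containing 10% FBS and plated at 1500 per well the previous night; absorbance at 570 nm gives viability, from which GI50 is calculated.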

[2] = test system: BGC-823 (human gastric cancer cells); details: MTT
How it was run: as §1

[3] = test system: DU145 (human prostate cancer cells); details: MTT
How it was run: as §1

[4] = test system: H1975 (non-small cell lung adenocarcinoma); details: MTT, 72 hours incubation, H1975 cells, read-out: GI50 H1975
How it was run: as §1

[5] = test system: Hela (human cervical cancer cells); details: MTT
How it was run: as §1

[6] = test system: Huh-7 (human hepatoma cells); details: MTT, 72 hours incubation, Huh-7 cells, read-out: GI50 Huh-7
How it was run: as §1

[7] = test system: KBM-5 (human chronic myelogenous leukemia); details: MTT, 72 hours incubation, KBM-5 cells, read-out: GI50 KBM-5
How it was run: as §1

[8] = test system: KBM5-T315I (human chronic myelogenous leukemia); details: MTT, 72 hours incubation, KBM5-T315I cells, read-out: GI50 KBM5-T315I
How it was run: as §1

[9] = test system: MCF-7 (human breast cancer cells)
How it was run: as §1

[10] = test system: MDA-MB-231 (breast cancer cells)
How it was run: as §1

[11] = test system: MOLT-4 (human acute lymphoblastic leukemia cells); details: MTT
How it was run: as §1

[12] = test system: PANC-1 (Pac-1, human pancreatic cancer cells); details: MTT
How it was run: as §1

[13] = test system: SGC-7901 (human gastric cancer cells); details: MTT, 72 hours incubation, SGC-7901 cells, read-out: GI50 SGC-7901
How it was run: as §1

[14] = test system: U937 (human leukemia cells); details: MTT
How it was run: as §1

[15] = test system: lncap (prostate cancer cells); details: MTT
How it was run: as §1

[16] = Homo sapiens, A549, 72 h, 72 hours incubation, read-out: GI50 A54
[17] = Homo sapiens, BGC-823, 72 h, 72 hours incubation, read-out: GI50 BG
[18] = Homo sapiens, DU-145, 72 h, 72 hours incubation, read-out: GI50 Du1
[19] = Homo sapiens, HeLa, 72 h, 72 hours incubation, read-out: GI50 Hela
[20] = Homo sapiens, MCF7, 72 h, 72 hours incubation, read-out: GI50 MCF
[21] = Homo sapiens, MDA-MB-231, 72 h, read-out: GI50 MDA-MB-231, MTT, 72 hours incubation, MDA-MB-231 cells
[22] = Homo sapiens, MOLT-4, 72 h, 72 hours incubation, read-out: GI50 Mol
[23] = Homo sapiens, PANC-1, 72 h, 72 hours incubation, read-out: GI50 PAN
[24] = Homo sapiens, U-937, 72 h, 72 hours incubation, read-out: GI50 U93
[25] = Homo sapiens, LNCaP, 72 h, 72 hours incubation, read-out: GI50 lnca
[26] = Homo sapiens, A549, 72 h, A549 cells, 72 hours incubation, read-out: GI50 A54
[27] = Homo sapiens, BGC-823, 72 h, BGC-823 cells, 72 hours incubation, read-out: GI50 BG
[28] = Homo sapiens, DU-145, 72 h, DU145 cells, 72 hours incubation, read-out: GI50 Du1
[29] = Homo sapiens, HeLa, 72 h, Hela cells, 72 hours incubation, read-out: GI50 Hela
[30] = Homo sapiens, MCF7, 72 h, MCF-7 cells, 72 hours incubation, read-out: GI50 MCF
[31] = Homo sapiens, MOLT-4, 72 h, MOLT-4 cells, 72 hours incubation, read-out: GI50 Mol
[32] = Homo sapiens, PANC-1, 72 h, PANC-1 cells, 72 hours incubation, read-out: GI50 PAN
[33] = Homo sapiens, U-937, 72 h, U937 cells, 72 hours incubation, read-out: GI50 U93
[34] = Homo sapiens, LNCaP, 72 h, lncap cells, 72 hours incubation, read-out: GI50 lnca
[35] = Homo sapiens, A549, 72 h, 72 hours, present invention, read-out: GI50 A549, a
[36] = Homo sapiens, BGC-823, 72 h, 72 hours, present invention, read-out: GI50 BGC823, a
[37] = Homo sapiens, DU-145, 72 h, 72 hours, present invention, read-out: GI50 Du145, a
[38] = Homo sapiens, HeLa, 72 h, 72 hours, present invention, read-out: GI50 Hela, a
[39] = Homo sapiens, MCF7, 72 h, 72 hours, present invention, read-out: GI50 MCF7, a
[40] = Homo sapiens, MOLT-4, 72 h, 72 hours, present invention, read-out: GI50 Molt-4, a
[41] = Homo sapiens, PANC-1, 72 h, 72 hours, present invention, read-out: GI50 PANC-1, a
[42] = Homo sapiens, U-937, 72 h, 72 hours, present invention, read-out: GI50 U937, a
[43] = Homo sapiens, LNCaP, 72 h, 72 hours, present invention, read-out: GI50 lncap, a

Row | Compound | GI50 [1, 16] | GI50 [2, 17] | GI50 [3, 18] | GI50 ([4]; Homo sapiens, NCI-H1975, 72 h) | GI50 [5, 19] | GI50 ([6]; Homo sapiens, Huh-7, 72 h) | GI50 ([7]; Homo sapiens, KBM5, 72 h) | GI50 ([8]; Homo sapiens, 72 h) | GI50 [9, 20] | GI50 [10, 21] | GI50 [11, 22] | GI50 [12, 23] | GI50 ([13]; Homo sapiens, SGC-7901, 72 h) | GI50 [14, 24] | GI50 [1, 26] | GI50 [2, 27] | GI50 [5, 29] | GI50 [9, 30] | GI50 [12, 32] | GI50 [15, 34] | further results
1 | C/C=C1\NC(=O)c2cccc(n2)CNC(=O)C[C@@H](/C=C/CCSC(C)=O)OC(=O)[C@H](Cc2cccc3ccccc23)NC1=O [Compound 17] | 1930 nM | 19700 nM | 5220 nM | 42 nM | 11000 nM | 61 nM | 81 nM | 28 nM | 22000 nM | 79 nM | 920 nM | 23300 nM | 53 nM | 20100 nM |  |  |  |  |  |  | GI50 [15, 25]: 530 nM
2 | C/C=C1\NC(=O)c2cc(SC)cc(n2)CNC(=O)C[C@@H](/C=C/CCSC(=O)CCCCCC)OC(=O)[C@H](C(C)C)NC1=O [Compound 151] |  |  |  | 58 nM |  | 35 nM | 31 nM | 22 nM |  | 37 nM |  |  | 36 nM |  | 40 nM | 40 nM | 70 nM | 40 nM | 40 nM | 70 nM | GI50 [3, 28]: 40 nM; GI50 [11, 31]: 90 nM; GI50 [14, 33]: 40 nM
3 | C/C=C1\NC(=O)c2cc(SC)cc(n2)CNC(=O)C[C@@H](/C=C/CCSC(C)=O)OC(=O)[C@H](C(C)C)NC1=O [Compound 224] |  |  |  |  |  |  |  |  |  |  |  |  |  |  |  |  |  |  |  |  | GI50 ([1]; A549 cells, 72 hours incubation, read-out: GI50 A54): 50 nM; GI50 ([2]; BGC-823 cells, 72 hours incubation, read-out: GI50 BG): 30 nM; GI50 ([3]; DU145 cells, 72 hours incubation, read-out: GI50 Du1): 50 nM; GI50 [4]: 96 nM; GI50 ([5]; Hela cells, 72 hours incubation, read-out: GI50 Hela): 60 nM; GI50 [6]: 36 nM; GI50 [7]: 16 nM; GI50 [8]: 63 nM; GI50 ([9]; MCF-7 cells, 72 hours incubation, read-out: GI50 MCF): 40 nM; GI50 ([10]; read-out: GI50 MDA-MB-231, MTT, 72 hours incubation, MDA-MB-231 cells): 62 nM; GI50 ([11]; MOLT-4 cells, 72 hours incubation, read-out: GI50 Mol): 30 nM; GI50 ([12]; PANC-1 cells, 72 hours incubation, read-out: GI50 PAN): 60 nM; GI50 [13]: 93 nM; GI50 ([14]; U937 cells, 72 hours incubation, read-out: GI50 U93): 30 nM; GI50 ([15]; lncap cells, 72 hours incubation, read-out: GI50 lnca): 30 nM
4 | C/C=C1\NC(=O)c2cccc(n2)CNC(=O)C[C@@H](/C=C/CCSC(=O)CCCCCCC)OC(=O)[C@H](Cc2cccc3ccccc23)NC1=O [Compound 239] |  |  |  | 91 nM |  | 51 nM | 29 nM | 23 nM |  | 25 nM |  |  | 35 nM |  | 10 nM | 20 nM | 11 nM | 10 nM | 130 nM | 10 nM | GI50 [1, 35]: 12 nM; GI50 [2, 36]: 22 nM; GI50 [3, 37]: 1 nM; GI50 [5, 38]: 11 nM; GI50 [9, 39]: 19 nM; GI50 [11, 40]: 4 nM; GI50 [12, 41]: 130 nM; GI50 [14, 42]: 3 nM; GI50 [15, 43]: 17 nM
5 | C/C=C1\NC(=O)c2nc(ccc2SC)CNC(=O)C[C@@H](/C=C/CCSC(=O)CCCCCCC)OC(=O)[C@H](CC)NC1=O [Compound 171] |  |  |  | 71 nM |  | 53 nM | 33 nM | 68 nM |  | 65 nM |  |  | 28 nM |  | 50 nM | 70 nM | 50 nM | 10 nM | 10 nM | 50 nM | GI50 [3, 28]: 10 nM; GI50 [11, 31]: 20 nM; GI50 [14, 33]: 20 nM
6 | C/C=C1\NC(=O)c2cccc(n2)CNC(=O)C[C@@H](/C=C/CCSC(C)=O)OC(=O)[C@H](CCCCN)NC1=O [Compound 15] | 2300 nM | 1220 nM | 480 nM | 38 nM | 15700 nM | 73 nM | 95 nM | 16 nM | 19800 nM | 91 nM | 19700 nM | 2580 nM | 53 nM | 1120 nM |  |  |  |  |  |  | GI50 [15, 25]: 400 nM

Second part, led by results:

Row | GI50 [1, 16] | GI50 [2, 17] | GI50 [3, 18] | GI50 ([4]; Homo sapiens, NCI-H1975, 72 h) | GI50 [5, 19] | GI50 ([6]; Homo sapiens, Huh-7, 72 h) | GI50 ([7]; Homo sapiens, KBM5, 72 h) | GI50 ([8]; Homo sapiens, 72 h) | GI50 [9, 20] | GI50 [10, 21] | GI50 [11, 22] | GI50 [12, 23] | GI50 ([13]; Homo sapiens, SGC-7901, 72 h) | GI50 [14, 24] | GI50 [1, 26] | GI50 [2, 27] | GI50 [5, 29] | GI50 [9, 30] | GI50 [12, 32] | GI50 [15, 34] | Compound | further results
7 | 80 nM |  |  | 26 nM | 50 nM | 53 nM | 44 nM | 26 nM | 30 nM | 97 nM | 10 nM | 60 nM | 31 nM |  |  |  |  |  |  |  | C/C=C1\NC(=O)c2cccc(n2)CNC(=O)C[C@@H](/C=C/CCSC(=O)CCCCCCC)OC(=O)[C@H](CC)NC1=O [Compound 9] | GI50 [1, 35]: 80 nM; GI50 [2, 36]: 7 nM; GI50 [3, 37]: 2 nM; GI50 [5, 38]: 50 nM; GI50 [9, 39]: 30 nM; GI50 [11, 40]: 11 nM; GI50 [12, 41]: 60 nM; GI50 [14, 42]: 1 nM; GI50 [15, 43]: 9 nM
8 |  |  |  | 28 nM |  | 31 nM | 11 nM | 12 nM |  | 65 nM |  |  | 63 nM |  | 110 nM | 770 nM | 530 nM | 40 nM | 140 nM | 860 nM | CCCCCCCC(=O)SCC/C=C/[C@@H]1CC(=O)NCc2cccc(n2)C(=O)NC(CC)C(=O)N[C@@H](C(C)C)C(=O)O1 (some centres unmarked) [Compound 245] | GI50 [1, 35]: 110 nM; GI50 [2, 36]: 770 nM; GI50 [3, 28]: 130 nM; GI50 [3, 37]: 130 nM; GI50 [5, 38]: 530 nM; GI50 [9, 39]: 41 nM; GI50 [11, 31]: 350 nM; GI50 [11, 40]: 350 nM; GI50 [12, 41]: 140 nM; GI50 [14, 42]: 840 nM; GI50 [14, 33]: 840 nM; GI50 [15, 43]: 860 nM
9 | 20 nM | 60 nM | 30 nM | 34 nM | 40 nM | 37 nM | 49 nM | 39 nM | 30 nM | 37 nM | 30 nM | 60 nM | 26 nM | 30 nM |  |  |  |  |  |  | C/C=C1\NC(=O)c2nc(ccc2F)CNC(=O)C[C@@H](/C=C/CCSC(C)=O)OC(=O)[C@H](CCCCN)NC1=O [Compound 72] | GI50 [15, 25]: 30 nM
